Laboratory results taken from ChEMBL document CHEMBL1201862, “PubChem BioAssay data set” (2004).
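48-hour exposure; five concentrations; linearly interpolated endpoints. GI50 = concentration required for 50% inhibition of growth.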 Calls of active or inactive are those of the source. Cut-off read from the data, not from the text of the source: active = GI50 up to about 1.1 µM and inactive = higher.

Assays:
Test in all cases: NCI anticancer screen, dose series, 48 h
MCF7 = system: MCF7
OVCAR-3 = system: OVCAR-3
SK-OV-3 = system: SK-OV-3
CCRF-CEM = system: CCRF-CEM
OVCAR-5 = system: OVCAR-5
NCI-H460 = system: NCI-H460
KM12 = system: KM12
K562 = system: K562
SK-MEL-28 = system: SK-MEL-28
CAKI-1 = system: CAKI-1
HOP-62 = system: HOP-62
HCT-116 = system: HCT-116
U-251 = system: U-251
RPMI-8226 = system: RPMI-8226
SF-268 = system: SF-268
HL-60 = system: HL-60
SN12C = system: SN12C
TK-10 = system: TK-10
SK-MEL-2 = system: SK-MEL-2
UO-31 = system: UO-31

Measured: GI50

c1cc(CSSCc2ccncc2)ccn1
inactive: MCF7 32.8 µM | OVCAR-3 33.6 µM | SK-OV-3 23.1 µM | CCRF-CEM 1.24 µM | OVCAR-5 55.5 µM | NCI-H460 23.7 µM | KM12 29.6 µM | K562 14.8 µM | SK-MEL-28 64 µM | CAKI-1 29.5 µM | HOP-62 46.2 µM | HCT-116 14.1 µM | U-251 23.3 µM | RPMI-8226 9.18 µM | SF-268 28.4 µM | HL-60 13.7 µM | SN12C 25.2 µM | TK-10 13.8 µM | SK-MEL-2 27.9 µM | UO-31 8.99 µM

CCCCCC(=O)Nc1[nH]nnc1C(N)=O
inactive: MCF7 > 100 µM | OVCAR-3 > 100 µM | SK-OV-3 > 100 µM | CCRF-CEM > 100 µM | OVCAR-5 > 100 µM | NCI-H460 > 100 µM | KM12 > 100 µM | K562 > 100 µM | SK-MEL-28 > 100 µM | CAKI-1 > 100 µM | HOP-62 > 100 µM | HCT-116 > 100 µM | U-251 > 100 µM | RPMI-8226 > 100 µM | SF-268 > 100 µM | HL-60 > 100 µM | SN12C > 100 µM | TK-10 > 100 µM | SK-MEL-2 > 100 µM | UO-31 > 100 µM

CC1(c2cccc(C(F)(F)F)c2)CC(c2cccc(C(F)(F)F)c2)=C(C#N)C(=C(C#N)C#N)N1 (stereo not given)
inactive: MCF7 16.7 µM | OVCAR-3 11.9 µM | SK-OV-3 16.1 µM | CCRF-CEM 2.88 µM | OVCAR-5 18.2 µM | NCI-H460 19.3 µM | KM12 16.5 µM | K562 15.2 µM | SK-MEL-28 16 µM | CAKI-1 18.7 µM | HOP-62 17.1 µM | HCT-116 15.2 µM | U-251 18.4 µM | RPMI-8226 16.4 µM | SF-268 15 µM | HL-60 15.5 µM | SN12C 18.1 µM | TK-10 16.8 µM | SK-MEL-2 19.6 µM | UO-31 18.6 µM
